# Entries after “also recorded” stand apart in the source; their conditions may differ.
# Tests used:
# FaDu xenografts = assay: Longitudinal dual tracer PET in two FaDu xenografts; assay type: in vivo, human tumor xenograft in NIH-Foxn1mu rat; settings: rat, [^18F]FDG
# Experimental: (§1) A431 (human epidermoid carcinoma) and FaDu (human squamous carcinoma of the hypopharynx) cell lines were purchased from American Type Culture Collection (ATCC). The cells were cultured in Dulbecco’s Modified Eagle’s Medium (4500 mg/L D-glucose containing L-glutamine) and were maintained at 37 °C in a humidified atmosphere, containing 5% CO2. All media were additionally supplemented with 1 mM sodium pyruvate, 100 units penicillin/mL, 100 μg streptomycin/mL, and 10% fetal bovine serum (Gibco). Media for FaDu cells were further supplemented with 0.1 mM non-essential amino acids and 2 mM HEPES. The integrity of the cell lines was verified with short tandem repeat profiling cell authentication analysis (LGC Standards).
# (§2) Rodents were anaesthetized (1.5% isoflurane (Virbac, Carros Cedex, France) blended with air (7:3) in a vaporizer (E-Z systems) delivered through a Microflex non-rebreather mask (Euthanex Corp)) and then i.v. injected (tail vein) with the radiotracer. PET imaging was performed using a microPET Focus 120 (CTI Concorde Microsystems, Knoxville, TN, USA). Data were acquired in list mode and reconstructed using Filtered Back Projection for the constant bed motion (CBM) scans or, to increase the spatial resolution in the dynamic scans, Ordered Subset […] in 2 dimensions, 4 iterations, and 16 subsets. Data, normalized and corrected for randoms, dead time, and radioactivity decay, were processed using MicroPET Manager and evaluated using the Inveon Research Workplace (IRW) software (Siemens Medical Systems, Malvern, PA, USA). The ROI selections were based on the PET images and the radioactivity in ROIs was calculated as mean or maximum standard uptake values (SUVmean or SUVmax) normalized to body weight. Blood ROIs were delineated on the left ventricle of the heart in the first frames of the scan. Liver ROIs were drawn on one lobe. Muscle ROIs were drawn on the front (rat) and hind (mouse) leg muscle on the images summed over the entire scan. […] Growth of the tumor xenografts was monitored by caliper measurements. […]
# A431 xenografts = assay: PET uptake in A431 xenografts after nitroglycerin (NG) ointment; assay type: in vivo, human tumor xenograft in NIH-Foxn1mu rat; settings: NG ointment 1 mg/tumor cutaneous, [^68Ga]ABY-028 uptake
# Experimental: as §1, §2
SMILES,"increase of uptake between early and late imaging, day 0 (FaDu xenografts; both FaDu tumors, 50 to 160 min, day 0)","increase of uptake between early and late imaging, day 3 (FaDu xenografts; both FaDu tumors, 50 to 160 min, day 3) [%]","decrease of SUV in tumor center, left tumor, day 3 (FaDu xenografts; left FaDu tumor, area in center extending to one edge, both time points)",effect of NG on tracer radioactivity in A431 xenografts (A431 xenografts),effect of NG on tracer radioactivity in A431 xenografts (A431 xenografts; listed as NG),effect of NG on tracer radioactivity in A431 xenografts (A431 xenografts; listed as Nitroglycerin (NG))
"O=C[C@H]([18F])[C@@H](O)[C@H](O)[C@H](O)CO [[^18F]FDG, [2-^18F]-2-Fluoro-2-deoxy-D-glucose]",approximately 20%,~35,approximately 30%,–,–,–
"O=[N+]([O-])OCC(CO[N+](=O)[O-])O[N+](=O)[O-] [nitroglycerin, glyceryltrinitrate]",–,–,–,increased radioactivity in the A431 xenografts,A more rapid increase in focal radioactivity levels; also recorded: increased uptake of albumin-bound [^68Ga]ABY-028,NG-induced changes are revealed by the SUVmax

# Source: PMC7509035, “[^68Ga]ABY-028: an albumin-binding domain (ABD) protein-based imaging tracer for positron emission tomography (PET) studies of altered vascular permeability and predictions of albumin-drug conjugate transport” (EJNMMI Research, 2020)
